Reference: patent US20220403001A1, “PDE5 DERIVED REGULATORY CONSTRUCTS AND METHODS OF USE IN IMMUNOTHERAPY” (Obsidian Therapeutics, Inc., priority 2018, published 2022)
Where two headings read alike, the source gives them in different places.

Tests used:
[1] = approved dose, cited from earlier work
[2] = target: hPDE5 Y612F (Homo sapiens, UniProt O76074, Y612F); conditions: Y612F ablates hydrogen bonding potential; Corbin et al. 2006; cited from earlier work
[3] = target: hPDE5 Y612A (Homo sapiens, UniProt O76074, Y612A); conditions: Y612A ablates hydrogen bonding and hydrophobic bonding potential; Corbin et al. 2006; cited from earlier work
[4] = tested on: hPDE5 mutants; test: GFP expression (MFI) by FACS in HEK293 cells expressing hPDE5 constructs; conditions: read-out: EC50 of ligand dependent stabilization; HEK293 cells expressing OT-001076, OT-001083, OT-001084; 48 h
[5] = Plasma PK of Tadalafil and Vardenafil after a single oral dose (LC/MS/MS); assay type: in vivo, mice; conditions: mouse, read-out: Plasma levels; for concentration at 1 h: 1 hour post dose; for concentration at 2 h: 2 hours post dose; for concentration at 4 h: 4 hours post dose; for concentration at 8 h: 8 hours post dose; for concentration at 12 h: 12 hours post dose; for concentration at 16 h: 16 hours post dose; for concentration at 24 h: 24 hours post dose
Protocol: Plasma samples collected over time and PDE5 inhibitor concentrations were determined by LC/MS/MS (Table 60). The Vardenafil/Tadalafil levels detected in the plasma declined over time and were commensurate with the initial dose orally administered to the animal.

[6] = target: T1, hPDE5 mutants (Homo sapiens, UniProt O76074); test: GFP MFI by FACS in HCT116 cells transduced with hPDE5 constructs; assay type: cell-based; conditions: for Vardenafil Stabilization ratio / Sildenafil Stabilization ratio / GFP by FACS, Sildenafil 10 μM / GFP by FACS, Vardenafil 1 μM: hotspot constructs; for Vardenafil Stabilization ratio: 1 μM Vardenafil; for Sildenafil Stabilization ratio: 10 μM Sildenafil; for GFP by FACS, Sildenafil 10 μM / GFP by FACS, Vardenafil 1 μM: HCT116
[7] = tested on: hPDE5 mutants; test: as above; assay type: cell-based, human; conditions: for MFI: 48 hours, HCT 116 cells; for Sildenafil Destabilizing mutation coefficient / Vardenafil Destabilizing mutation coefficient / GFP by FACS, Sildenafil 0 μM (DMSO) / GFP by FACS, Vardenafil 0 μM (DMSO): hotspot constructs; for Sildenafil Destabilizing mutation coefficient: DMSO control of Sildenafil; for Sildenafil Destabilizing mutation coefficient / Vardenafil Destabilizing mutation coefficient: vs OT-001075; for Vardenafil Destabilizing mutation coefficient: DMSO control of Vardenafil; for GFP by FACS, Sildenafil 0 μM (DMSO): HCT116, DMSO control of Sildenafil; for GFP by FACS, Vardenafil 0 μM (DMSO): HCT116, DMSO control of Vardenafil
[8] = target: T1, hPDE5 mutants; test: Western blot of AcGFP/GFP protein levels in HCT 116 cells expressing hPDE5 mutants; assay type: cell-based; design: GFP protein levels (western blot); fused on or other part: AcGFP reporter through a linker; conditions: vardenafil vs DMSO, HCT 116, R732 mutants
Protocol: Protein expression analysis of the combination mutants was performed in parallel via western blot. […] GAPDH levels were also analyzed to ensure even protein loading.

[9] = NSG mice, single oral dose 10 mg/kg
[10] = NSG mice, single oral dose 30 mg/kg
[11] = NSG mice, single oral dose 100 mg/kg
[12] = CD-1 mice, single oral dose 10 mg/kg
[13] = CD-1 mice, single oral dose 100 mg/kg

CCCc1nn(C)c2c(=O)[nH]c(-c3cc(S(=O)(=O)N4CCN(C)CC4)ccc3OCC)nc12 [Sildenafil]
Cmax ([1]; IV): 1000 nM
Cmax ([1]; PO): 1000 nM
effect of Y612F mutation on inhibition of hPDE5 activity by ligand [2]: increases the inhibition of hPDE5 activity
effect of Y612A mutation on inhibition of hPDE5 catalytic activity by ligand [3]: to a lesser extent

CN1CC(=O)N2[C@H](c3ccc4c(c3)OCO4)c3[nH]c4ccccc4c3C[C@@H]2C1=O [Tadalafil]
concentration at 1 h [5, 9]: 6800 nM
concentration at 2 h [5, 9]: 5400 nM
concentration at 4 h [5, 9]: 3900 nM
concentration at 8 h [5, 9]: 900 nM
concentration at 12 h [5, 9]: 100 nM
concentration at 16 h [5, 9]: 0 nM
concentration at 1 h [5, 10]: 19800 nM
concentration at 2 h [5, 10]: 17600 nM
concentration at 4 h [5, 10]: 12100 nM
concentration at 8 h [5, 10]: 4400 nM
concentration at 12 h [5, 10]: 500 nM
concentration at 16 h [5, 10]: 100 nM
concentration at 24 h [5, 10]: 0 nM
concentration at 1 h [5, 11]: 53300 nM
concentration at 2 h [5, 11]: 44700 nM
concentration at 4 h [5, 11]: 34800 nM
concentration at 8 h [5, 11]: 13700 nM
concentration at 12 h [5, 11]: 5600 nM
concentration at 16 h [5, 11]: 1500 nM
concentration at 24 h [5, 11]: 100 nM
Cmax ([1]; PO): 1500 nM
Duration of action [1]: 24 to 36 h

CCCc1nc(C)c2c(=O)[nH]c(-c3cc(S(=O)(=O)N4CCN(CC)CC4)ccc3OCC)nn12 [Vardenafil]
concentration at 1 h [5, 12]: 160 nM
concentration at 2 h [5, 12]: 30 nM
concentration at 4 h [5, 12]: 20 nM
concentration at 1 h [5, 13]: 7810 nM
concentration at 2 h [5, 13]: 3040 nM
concentration at 4 h [5, 13]: 3320 nM
concentration at 8 h [5, 13]: 1180 nM
concentration at 12 h [5, 13]: 40 nM
Cmax ([1]; PO): 100 nM
EC50 [4]: 100 to 300 nM

OT-001198: hPDE5 R732D AcGFP construct
MFI ([6]; Table 44, Vardenafil 0.01 μM, 48 h, HCT 116): 4336
MFI ([6]; Table 44, Vardenafil 0.04 μM, 48 h, HCT 116): 7350
MFI ([6]; Table 44, Vardenafil 3.33 μM, 48 h, HCT 116): 44499
MFI ([6]; Table 44, Vardenafil 10 μM, 48 h, HCT 116): 50822
MFI ([6]; Table 44, Vardenafil 30 μM, 48 h, HCT 116): 70645
MFI ([6]; Table 44, Vardenafil 1000 μM, 48 h, HCT 116): 70645
MFI ([6]; Table 45, Sildenafil 0.01 μM, 48 h, HCT 116): 1192
MFI ([6]; Table 45, Sildenafil 0.04 μM, 48 h, HCT 116): 1270
MFI ([6]; Table 45, Sildenafil 3.33 μM, 48 h, HCT 116): 6171
MFI ([6]; Table 45, Sildenafil 10 μM, 48 h, HCT 116): 13971
MFI ([6]; Table 45, Sildenafil 30 μM, 48 h, HCT 116): 21120
MFI ([6]; Table 45, Sildenafil 1000 μM, 48 h, HCT 116): 21120
MFI ([6]; Tadalafil 0.01 μM, 48 hours, HCT 116 cells): 1163
Vardenafil Stabilization ratio [6]: 1.44
Sildenafil Stabilization ratio [6]: 1.32
GFP by FACS, Sildenafil 10 μM [6]: 394
GFP by FACS, Vardenafil 1 μM [6]: 422
MFI ([7]; Tadalafil 11.11 μM): 10583
MFI ([7]; Tadalafil 33.33 μM): 16956
MFI ([7]; Tadalafil 100 μM): 22630
MFI ([7]; Tadalafil 1000 μM): 22630
Sildenafil Destabilizing mutation coefficient [7]: 0.3
Vardenafil Destabilizing mutation coefficient [7]: 1.83
GFP by FACS, Sildenafil 0 μM (DMSO) [7]: 298
GFP by FACS, Vardenafil 0 μM (DMSO) [7]: 294
GFP protein levels (western blot) [8]: strong stabilization of GFP levels

OT-001199: hPDE5 R732E AcGFP construct
Vardenafil Stabilization ratio [6]: 0.77
Sildenafil Stabilization ratio [6]: 1.07
GFP by FACS, Sildenafil 10 μM [6]: 316
GFP by FACS, Vardenafil 1 μM [6]: 212
Sildenafil Destabilizing mutation coefficient [7]: 0.3
Vardenafil Destabilizing mutation coefficient [7]: 1.71
GFP by FACS, Sildenafil 0 μM (DMSO) [7]: 295
GFP by FACS, Vardenafil 0 μM (DMSO) [7]: 276
GFP protein levels (western blot) [8]: strong stabilization of GFP levels

OT-001200: hPDE5 R732Q AcGFP construct
Vardenafil Stabilization ratio [6]: 0.95
Sildenafil Stabilization ratio [6]: 1.57
GFP by FACS, Sildenafil 10 μM [6]: 553
GFP by FACS, Vardenafil 1 μM [6]: 289
Sildenafil Destabilizing mutation coefficient [7]: 0.36
Vardenafil Destabilizing mutation coefficient [7]: 1.89
GFP by FACS, Sildenafil 0 μM (DMSO) [7]: 353
GFP by FACS, Vardenafil 0 μM (DMSO) [7]: 305
GFP protein levels (western blot) [8]: strong stabilization of GFP levels

OT-001201: hPDE5 R732N AcGFP construct
Vardenafil Stabilization ratio [6]: 0.93
Sildenafil Stabilization ratio [6]: 1.64
GFP by FACS, Sildenafil 10 μM [6]: 516
GFP by FACS, Vardenafil 1 μM [6]: 290
Sildenafil Destabilizing mutation coefficient [7]: 0.32
Vardenafil Destabilizing mutation coefficient [7]: 1.94
GFP by FACS, Sildenafil 0 μM (DMSO) [7]: 315
GFP by FACS, Vardenafil 0 μM (DMSO) [7]: 313
GFP protein levels (western blot) [8]: strong stabilization of GFP levels

OT-001202: hPDE5 R732M AcGFP construct
Vardenafil Stabilization ratio [6]: 1.07
Sildenafil Stabilization ratio [6]: 1.76
GFP by FACS, Sildenafil 10 μM [6]: 503
GFP by FACS, Vardenafil 1 μM [6]: 337
Sildenafil Destabilizing mutation coefficient [7]: 0.29
Vardenafil Destabilizing mutation coefficient [7]: 1.96
GFP by FACS, Sildenafil 0 μM (DMSO) [7]: 285
GFP by FACS, Vardenafil 0 μM (DMSO) [7]: 316
GFP protein levels (western blot) [8]: strong stabilization of GFP levels

OT-001203: hPDE5 R732C AcGFP construct
Vardenafil Stabilization ratio [6]: 0.66
Sildenafil Stabilization ratio [6]: 1.42
GFP by FACS, Sildenafil 10 μM [6]: 707
GFP by FACS, Vardenafil 1 μM [6]: 349
Sildenafil Destabilizing mutation coefficient [7]: 0.5
Vardenafil Destabilizing mutation coefficient [7]: 3.27
GFP by FACS, Sildenafil 0 μM (DMSO) [7]: 499
GFP by FACS, Vardenafil 0 μM (DMSO) [7]: 526
GFP protein levels (western blot) [8]: strong stabilization of GFP levels

OT-001204: hPDE5 R732K AcGFP construct
Vardenafil Stabilization ratio [6]: 3.74
Sildenafil Stabilization ratio [6]: 4.64
GFP by FACS, Sildenafil 10 μM [6]: 765
GFP by FACS, Vardenafil 1 μM [6]: 423
Sildenafil Destabilizing mutation coefficient [7]: 0.17
Vardenafil Destabilizing mutation coefficient [7]: 0.7
GFP by FACS, Sildenafil 0 μM (DMSO) [7]: 165
GFP by FACS, Vardenafil 0 μM (DMSO) [7]: 113
GFP protein levels (western blot) [8]: Modest ligand dependent stabilization of GFP levels
